# Like-named read-outs stand apart in the source and are kept apart here.
# Tested on: N. europaea
# Assay: mode of inhibition, Michaelis-Menten kinetics of NO2- production
# Format: cell-based
# Settings: for Km: read-out: Km(app)
# Method: These studies were performed using a modified procedure of that described earlier. In FIG. 4a, the rate of NO2^− production was measured as a function of [NH4^+] to determine whether the inhibitor follows Michaelis-Menten kinetics. The [NH4^+] was 0.003 mM, 0.03 mM, 0.5 mM, 1.5 mM, 3 mM, 10 mM, 15 mM and 30 mM. [4-MPT] remained constant at 0.3 mM. The Michaelis-Menten plots show saturation kinetics, where the NO2 production became independent of [NH4^+] beyond 0.5 mmol L^−1.
# Mode of inhibition studies with remaining inhibitors N001, N003, N014 and N018 were conducted as a proof of concept.
# [1] = inhibitor concentration 37.5 μM
# [2] = inhibitor concentration 75.0 μM
structure (smiles),measurement,setting,value
"C#CCn1cc(C)nn1 [Compound 4-MPT, 4-Methyl-1-(prop-2-yn-1yl)-1H-1,2,3-triazole]",mode of inhibition,NO2- production against [NH4+],non-competitive inhibition mode
same,Vmax(app),[1],52.7 ± 2.0 μmol (mg protein min)^−1
same,Km,[1],30.2 ± 0.3 µM
same,Vmax(app),[2],39.2 ± 2.0 μmol (mg protein min)^−1
same,Km,[2],23.7 ± 4 µM

# From patent US20260215425A1, “NITRIFICATION INHIBITORS” (The University of Melbourne, priority 2022, published 2026)
